Target: T1, human TLR8 (Homo sapiens, UniProt Q9NR97)
T1 sequence (Q9NR97 27-1041): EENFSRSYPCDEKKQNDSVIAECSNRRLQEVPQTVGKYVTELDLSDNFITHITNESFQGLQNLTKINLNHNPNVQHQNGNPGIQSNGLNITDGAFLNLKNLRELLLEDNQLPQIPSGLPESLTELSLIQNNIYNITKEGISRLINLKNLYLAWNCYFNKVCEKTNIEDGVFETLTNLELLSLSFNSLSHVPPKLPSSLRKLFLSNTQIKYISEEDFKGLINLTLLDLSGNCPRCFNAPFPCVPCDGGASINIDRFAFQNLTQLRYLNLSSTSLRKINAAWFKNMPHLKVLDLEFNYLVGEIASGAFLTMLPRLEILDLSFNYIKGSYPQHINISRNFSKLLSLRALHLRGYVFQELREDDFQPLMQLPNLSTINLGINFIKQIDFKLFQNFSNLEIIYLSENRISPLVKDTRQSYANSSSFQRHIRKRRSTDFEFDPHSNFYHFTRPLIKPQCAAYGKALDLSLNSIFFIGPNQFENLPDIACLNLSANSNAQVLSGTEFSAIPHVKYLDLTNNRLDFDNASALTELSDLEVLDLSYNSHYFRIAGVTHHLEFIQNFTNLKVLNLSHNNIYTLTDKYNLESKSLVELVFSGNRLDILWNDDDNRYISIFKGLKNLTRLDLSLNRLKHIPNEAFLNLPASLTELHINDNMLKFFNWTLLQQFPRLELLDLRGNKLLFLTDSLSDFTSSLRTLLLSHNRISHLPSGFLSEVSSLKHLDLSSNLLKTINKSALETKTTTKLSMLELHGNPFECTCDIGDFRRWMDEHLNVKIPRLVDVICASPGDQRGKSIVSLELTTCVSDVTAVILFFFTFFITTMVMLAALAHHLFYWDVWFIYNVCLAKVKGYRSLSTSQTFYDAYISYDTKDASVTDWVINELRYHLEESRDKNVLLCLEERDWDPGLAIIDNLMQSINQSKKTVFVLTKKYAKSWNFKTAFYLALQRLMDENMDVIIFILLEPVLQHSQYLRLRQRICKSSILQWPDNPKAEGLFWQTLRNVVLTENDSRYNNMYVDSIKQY
Experiment: HEK293-Blue-hTLR-8 cells assay (SEAP reporter, R848 stimulation)
Format: cell-based
Details: HEK293-Blue-hTLR8 cells, R848, 20 hrs; 0.003 is the lowest tested concentration; read-out: HEK/hTLR8 IC50
Method: The following tests were carried out in order to determine the activity of the compounds of formula (I) or (Ia) in HEK293-Blue-hTLR-7/8/9 cells assay.
HEK293-Blue-hTLR-8 cells assay:
A stable HEK293-Blue-hTLR-8 cell line was purchased from InvivoGen (Cat.#: hkb-htlr8, San Diego, California, USA). These cells were originally designed for studying the stimulation of human TLR8 by monitoring the activation of NF-κB. A SEAP (secreted embryonic alkaline phosphatase) reporter gene was placed under the control of the IFN-β minimal promoter fused to five NF-κB and AP-1-binding sites. The SEAP was induced by activating NF-κB and AP-1 via stimulating HEK-Blue hTLR8 cells with TLR8 ligands. Therefore the reporter expression was declined by TLR8 antagonist under the stimulation of a ligand, such as R848, for incubation of 20 hrs. The cell culture supernatant SEAP reporter activity was determined using QUANTI-Blue™ kit (Cat.#: rep-qb1, Invivogen, San Diego, Ca, USA) at a wavelength of 640 nm, a detection medium that turns purple or blue in the presence of alkaline phosphatase.
HEK293-Blue-hTLR8 cells were incubated at a density of 250,000∼450,000 cells/mL in a volume of 170 µL in a 96-well plate in Dulbecco's Modified Eagle's medium (DMEM) containing 4.5 g/L glucose, 50 U/mL penicillin, […], […], 2 mM L-glutamine, 10% (v/v) heat-inactivated fetal bovine serum with addition of 20 µL test compound in a serial dilution in the presence of final DMSO at 1% and 10 µL of 60uM R848 in above DMEM, perform incubation under 37 °C in a CO2 incubator for 20 hrs. Then 20 µL of the supernatant from each well was incubated with 180 µL Quanti-blue substrate solution at 37°C for 2 hrs and the absorbance was read at 620∼655 nm using a spectrophotometer. The signalling pathway that TLR8 activation leads to downstream NF-κB activation has been widely accepted, and therefore similar reporter assay was modified for evaluating TLR8 antagonist.

Compound | IC50 [nM]
C[C@@H]1CN(c2ccc(C#N)c3ncccc23)C[C@H](CN2Cc3cc(N4CCNCC4)cnc3C2)O1 [Example 20, 5-[(2R,6S)-2-methyl-6-[(3-piperazin-1-yl-5,7-dihydropyrrolo[3,4-b]pyridin-6-yl)methyl]morpholin-4-yl]quinoline-8-carbonitrile] | 4
C[C@@H]1CN(c2ccc(C#N)c3nccnc23)C[C@H](CN2Cc3ccc(N4CCN5CCCCC5C4)cc3C2)O1 (stereo partly drawn) [Example 40, 8-[(2S,6R)-2-[[5-(1,3,4,6,7,8,9,9a-octahydropyrido[1,2-a]pyrazin-2-yl)isoindolin-2-yl]methyl]-6-methyl-morpholin-4-yl]quinoxaline-5-carbonitrile] | 4
C[C@@H]1CN(c2ccc(C#N)c3ncccc23)C[C@H](CN2Cc3ccc(N4CCNCC4C(F)F)cc3C2)O1 (stereo partly drawn) [Example 76, 5-[(2S,6R)-2-[[5-[2-(difluoromethyl)piperazin-1-yl]isoindolin-2-yl]methyl]-6-methyl-morpholin-4-yl]quinoline-8-carbonitrile] | 4
C[C@@H]1CN(c2ccc(C#N)c3ncccc23)C[C@H](CNCc2ccc(N3CCNCC3)cc2)O1 [Example 86, 5-[(2R,6S)-2-methyl-6-[[(4-piperazin-1-ylphenyl)methylamino]methyl]morpholin-4-yl] quinoline-8-carbonitrile] | 26
5-[(2S,6R)-2-[[5-[3-(hydroxymethyl)piperazin-1-yl]isoindolin-2-yl]methyl]-6-methyl-morpholin-4-yl]quinoline-8-carbonitrile [Example 85] | 17
C[C@@H]1CN(c2ccc(C#N)c3nccnc23)C[C@H](CN2Cc3ccc(N4CCNC5(CC5)C4)cc3C2)O1 [Example 38, 8-[(2S,6R)-2-[[5-(4,7-diazaspiro[2.5]octan-7-yl)isoindolin-2-yl]methyl]-6-methyl-morpholin-4-yl]quinoxaline-5-carbonitrile] | 5
C[C@@H]1CN(c2ccc(Cl)c3ncccc23)C[C@H](CN2Cc3ccc(N4CCNCC4)cc3C2)O1 [Example 31, (2R,6S)-4-(8-chloro-5-quinolyl)-2-methyl-6-[(5-piperazin-1-ylisoindolin-2-yl)methyl]morpholine] | 13
C[C@@H]1CN(c2ccc(C#N)c3ncccc23)C[C@H](CN2CCc3nc(N4CCNCC4)ccc3C2)O1 [Example 79, 5-[(2R,6S)-2-methyl-6-[(2-piperazin-1-yl-7,8-dihydro-5H-1,6-naphthyridin-6-yl)methyl]morpholin-4-yl]quinoline-8-carbonitrile] | 4
CC1CNCCN1c1ccc2c(c1)CN(C[C@H]1CN(c3ccc(C#N)c4ncccc34)C[C@@H](C)O1)C2 (stereo partly drawn) [Example 78, 5-[(2R,6S)-2-methyl-6-[[5-(2-methylpiperazin-1-yl)isoindolin-2-yl]methyl]morpholin-4-yl] quinoline-8-carbonitrile] | < 3
C[C@@H]1CN(c2ccc(C#N)c3ncccc23)C[C@H](CN2Cc3ccc(CN4CCCCC4)cc3C2)O1 [Example 74, 5-[(2R,6S)-2-methyl-6-[[5-(1-piperidylmethyl)isoindolin-2-yl]methyl]morpholin-4-yl]quinoline-8-carbonitrile] | < 3
C[C@@H]1CN(c2ccc(C#N)c3ncccc23)C[C@H](CN2Cc3cc(N4CCN(C)CC4)cc(F)c3C2)O1 [Example 69, 5-[(2S,6R)-2-[[4-fluoro-6-(4-methylpiperazin-1-yl)isoindolin-2-yl]methyl]-6-methyl-morpholin-4-yl]quinoline-8-carbonitrile] | < 3
C[C@@H]1CN(c2ccc(C#N)c3ncccc23)C[C@H](CN2Cc3ccc(N4CC5(CCN5)C4)cc3C2)O1 [Example 55, 5-[(2S,6R)-2-[[5-(1,6-diazaspiro[3.3]heptan-6-yl)isoindolin-2-yl]methyl]-6-methyl-morpholin-4-yl]quinoline-8-carbonitrile] | 7
C[C@@H]1CN(c2ccc3c(c2)CN(C[C@H]2CN(c4ccc(C#N)c5ncccc45)C[C@@H](C)O2)C3)C[C@@H](C)N1 (mixture of isomers) [Example 57, Trans-5-[(2R,6S)-2-methyl-6-[[5-[3,5-dimethylpiperazin-1-yl]isoindolin-2-yl]methyl]morpholin-4-yl]quinoline-8-carbonitrile] | 12
C[C@@H]1CN(c2ccc(C#N)n3nccc23)C[C@H](CN2Cc3cc(N4CCNCC4)cnc3C2)O1 [Example 18, 4-[(2R,6S)-2-methyl-6-[(3-piperazin-1-yl-5,7-dihydropyrrolo[3,4-b]pyridin-6-yl)methyl]morpholin-4-yl]pyrazolo[1,5-a]pyridine-7-carbonitrile] | 31
C[C@@H]1CN(c2ccc(C#N)n3nccc23)C[C@H](CN2Cc3ccc(C4CCNCC4)cc3C2)O1 [Example 8, 4-[(2R,6S)-2-methyl-6-[[5-(4-piperidyl)isoindolin-2-yl]methyl]morpholin-4-yl]pyrazolo[1,5-a]pyridine-7-carbonitrile] | 79
3-fluoro-4-[(2R,6S)-2-methyl-6-[(5-piperazin-1-ylisoindolin-2-yl)methyl]morpholin-4-yl]pyrazolo[1,5-a]pyridine-7-carbonitrile [Example 7] | 13
C[C@@H]1CN(c2ccc(C#N)c3ncccc23)C[C@H](CN2Cc3ccc(N4CCNCC4)nc3C2)O1 [Example 80, 5-[(2R,6S)-2-methyl-6-[(2-piperazin-1-yl-5,7-dihydropyrrolo[3,4-b]pyridin-6-yl)methyl]morpholin-4-yl]quinoline-8-carbonitrile] | < 3
C[C@@H]1CN(c2ccc(C#N)c3ncccc23)C[C@H](CN2CCc3cc(N4CCNCC4)ncc3C2)O1 [Example 70, 5-[(2R,6S)-2-methyl-6-[(6-piperazin-1-yl-3,4-dihydro-1H-2,7-naphthyridin-2-yl)methyl]morpholin-4-yl]quinoline-8-carbonitrile] | < 3
C[C@@H]1CN(c2ccc(C#N)c3ncccc23)C[C@H](CN2CCc3cc(N4CCNCC4)ccc3C2)O1 [Example 19, 5-[(2R,6S)-2-methyl-6-[(6-piperazin-1-yl-3,4-dihydro-1H-isoquinolin-2-yl)methyl]morpholin-4-yl]quinoline-8-carbonitrile] | 6
C[C@@H]1CN(c2ccc(C#N)c3ncccc23)C[C@H](CN2Cc3ccc(N4C5CNCC4COC5)cc3C2)O1 [Example 46, 5-[(2R,6S)-2-methyl-6-[[5-(3-oxa-7,9-diazabicyclo[3.3.1]nonan-9-yl)isoindolin-2-yl]methyl]morpholin-4-yl]quinoline-8-carbonitrile] | 19
C[C@@H]1CN(c2ccc3c(c2)CN(C[C@H]2CN(c4ccc(C#N)c5ncccc45)C[C@@H](C)O2)C3)CCN1 [Example 62, 5-[(2R,6S)-2-methyl-6-[[5-[(3R)-3-methylpiperazin-1-yl]isoindolin-2-yl]methyl]morpholin-4-yl] quinoline-8-carbonitrile] | 5
C[C@@H]1CN(c2ccc(C#N)n3nccc23)C[C@H](CN2Cc3ccc(C4CCNC4)cc3C2)O1 (stereo partly drawn) [Example 9, 4-[(2R,6S)-2-methyl-6-[(5-pyrrolidin-3-ylisoindolin-2-yl)methyl]morpholin-4-yl]pyrazolo[1,5-a]pyridine-7-carbonitrile] | 90

— patent publication EP3623369A1, “NOVEL MORPHOLINYL AMINE COMPOUNDS FOR THE TREATMENT OF AUTOIMMUNE DISEASE” (F. Hoffmann-La Roche AG, priority 2018, dated 2020)
